# Reference: patent publication US7595401B2, “Therapeutic compounds and their use in cancer” (Myriad Pharmaceuticals, Inc., priority 2006, dated 2009)
# Tested on: purified human Hsp90
# Assay: Binding Assay: fluorescence polarization with BODIPY-labeled geldanamycin
# Conditions: 5 μM compound, BODIPY-GM 10 nM, Hsp90 30 nM
# Protocol: Compound binding to purified Hsp90 was monitored using BODIPY-labeled geldanamycin (BODIPY-GM) in a fluorescence polarization assay adapted from Kim et al. (Journal of Biomolecular Screening 2004, 9(5):375-381). Compound dilutions (in 100% DMSO) were added to black-bottom 96-well plates (Greiner; 2% DMSO final), and equal volumes of BODIPY-GM (10 nM final) and purified human Hsp90 (Stressgen, SPP-770; 30 nM final) in assay buffer (20 mM HEPES-KOH pH 7.3, 50 mM KCl, 5 mM MgCl2, 20 mM Na2MoO4, 0.01% NP-40, 0.1 mg/mL bovine gamma globulin [Invitrogen, P2045], 2 mM DTT) were added sequentially to yield a final volume of 50 microliters. Plates were incubated overnight at room temperature. Parallel and perpendicular fluorescence measurements were read (LJL BioSystems Analyst AD plate reader) with excitation/emission wavelengths of 485/530 nm. Background fluorescence (buffer only) was subtracted, and fluorescence polarization (FP) values, expressed in mP units, were calculated from parallel and perpendicular fluorescence readings as follows: FP=(parallel−perpendicular)/(parallel+perpendicular)*1000
# Percent inhibition was calculated by normalizing the FP values to those obtained in parallel reactions containing DMSO and subtracting these normalized values from 100%. Intrinsic compound fluorescence was independently monitored, and FP data points confounded by compound fluorescence were excluded from the analysis.
row,SMILES,% Inhibition at 5 μM Compound Concentration
1,"COc1ccc(OC)c(Sc2nc3c(N)ncnc3n2CCCc2ccccc2)c1 [Example 3, 8-(2,5-Dimethoxy-phenylsulfanyl)-9-(3-phenyl-propyl)-9H-purin-6-ylamine]",36%
2,"Nc1ncnc2c1nc(Sc1ccc3c(c1)OCO3)n2CCc1ccccc1 [Example 4, 8-(Benzo[1,3]dioxol-5-ylsulfanyl)-9-phenethyl-9H-purin-6-ylamine]",75%
3,"Nc1ncn(CCc2ccccc2)c2nc(Sc3ccc4c(c3)OCO4)nc1-2 [Example 5, 8-(benzo[1,3]dioxol-5-ylsulfanyl)-3-phenethyl-3H-purin-6-ylamine]",8%
4,"Nc1ncnc2c1nc(Sc1ccc3c(c1)OCO3)n2CCCc1ccccc1 [Example 6, 8-(Benzo[1,3]dioxol-5-ylsulfanyl)-9-(3-phenyl-propyl)-9H-purin-6-ylamine]",66%
5,"Nc1ncnc2c1nc(Sc1ccc3c(c1)OCO3)n2CCc1ccc([N+](=O)[O-])cc1 [Example 7, 8-(Benzo[1,3]dioxol-5-ylsulfanyl)-9-[2-(4-nitro-phenyl)-ethyl]-9H-purin-6-ylamine]",22%
6,"COc1ccc(Sc2nc3c(N)ncn(CCc4ccccc4)c-3n2)c(OC)c1 [Example 16, 8-(2,4-dimethoxy-phenylsulfanyl)-3-phenethyl-3H-purin-6-ylamine]",6%
7,"Nc1ncn(CCc2ccccc2)c2nc(Sc3ccc(Cl)cc3)nc1-2 [Example 18, 8-(4-chloro-phenylsulfanyl)-3-phenethyl-3H-purin-6-ylamine]",0%
8,"N#Cc1ccc(Sc2nc3c(N)ncn(CCc4ccccc4)c-3n2)cc1 [Example 20, 4-(6-amino-3-phenethyl-3H-purin-8-ylsulfanyl)-benzonitrile]",0%

# More lines, now with the values ahead:
row,% Inhibition at 5 μM Compound Concentration,SMILES
1,0%,"CCOC(=O)[C@@H]1C[C@H](CCn2cnc(N)c3nc(Sc4cc5c(cc4Br)OCO5)nc2-3)CCN1C(=O)OC(C)(C)C (relative stereo) [Example 423, 1-tert-Butyl 2-ethyl cis-4-(2-{6-amino-8-[(6-bromo-1,3-benzodioxol-5-yl)thio]-3H-purin-3-yl}ethyl)piperidine-1,2-dicarboxylate]"
2,15%,"CC(C)[C@@H]1C[C@H](CCn2cnc(N)c3nc(Sc4cc5c(cc4Br)OCO5)nc2-3)CCN1C(=O)OC(C)(C)C (relative stereo) [Example 430, tert-Butyl cis-4-(2-{6-amino-8-[(6-bromo-1,3-benzodioxol-5-yl)thio]-3H-purin-3-yl}ethyl)-2-isopropylpiperidine-1-carboxylate]"
3,0.0%,"CCOC(=O)[C@@H]1C[C@H](CCn2cnc(N)c3nc(Sc4cc5c(cc4Br)OCO5)nc2-3)CCN1 (relative stereo) [Example 482, Ethyl cis-4-(2-{6-amino-8-[(6-bromo-1,3-benzodioxol-5-yl)thio]-3 H-purin-3-yl}ethyl)piperidine-2-carboxylate]"

# Same assay, conditions: BODIPY-GM 10 nM, Hsp90 30 nM
row,SMILES,IC50
1,"COc1ccc(OC)c(Sc2nc3c(N)ncnc3n2CCc2ccccc2)c1 [Example 1, 8-(2,5-Dimethoxy-phenylsulfanyl)-9-phenethyl-9H-purin-6-ylamine]",0.34 µM
2,"COc1ccc(OC)c(Sc2nc3c(N)ncn(CCc4ccccc4)c-3n2)c1 [Example 2, 8-(2,5-dimethoxy-phenylsulfanyl)-3-phenethyl-3H-purin-6-ylamine]",3.47 µM
3,"Nc1ncnc2c1nc(Sc1ccc3c(c1)OCO3)n2CCc1ccccc1 [Example 4, 8-(Benzo[1,3]dioxol-5-ylsulfanyl)-9-phenethyl-9H-purin-6-ylamine]",0.65 µM
4,"Nc1ncnc2c1nc(Sc1ccc3c(c1)OCO3)n2CCCc1ccccc1 [Example 6, 8-(Benzo[1,3]dioxol-5-ylsulfanyl)-9-(3-phenyl-propyl)-9H-purin-6-ylamine]",1.06 µM
5,"COc1ccc(OC)c(Sc2nc3c(N)ncnc3n2CCc2ccc([N+](=O)[O-])cc2)c1 [Example 8, 8-(2,5-Dimethoxy-phenylsulfanyl)-9-[2-(4-nitro-phenyl)-ethyl]-9H-purin-6-ylamine]",18 µM
6,"COc1ccc(OC)c(Sc2nc3c(N)ncnc3n2CCc2ccc(F)cc2)c1 [Example 9, 8-(2,5-Dimethoxy-phenylsulfanyl)-9-[2-(4-fluoro-phenyl)-ethyl]-9H-purin-6-ylamine]",1 µM
7,"COc1ccc(OC)c(Sc2nc3c(N)ncn(CCc4ccc(F)cc4)c-3n2)c1 [Example 10, 8-(2,5-dimethoxy-phenylsulfanyl)-3-[2-(4-fluoro-phenyl)-ethyl]-3H-purin-6-ylamine]",> 50 µM
8,"Nc1ncnc2c1nc(Sc1ccc3c(c1)OCO3)n2CCc1ccc(F)cc1 [Example 11, 8-(Benzo[1,3]dioxol-5-ylsulfanyl)-9-[2-(4-fluoro-phenyl)-ethyl]-9H-purin-6-ylamine]",0.6 µM
9,"Nc1ncn(CCc2ccc(F)cc2)c2nc(Sc3ccc4c(c3)OCO4)nc1-2 [Example 12, 8-(benzo[1,3]dioxol-5-ylsulfanyl)-3-[2-(4-fluoro-phenyl)-ethyl]-3H-purin-6-ylamine]",> 10 µM
10,"Nc1ncnc2c1nc(Sc1cc3c(cc1Br)OCO3)n2CCc1ccccc1 [Example 13, 8-(6-Bromo-benzo[1,3]dioxol-5-ylsulfanyl)-9-phenethyl-9H-purin-6-ylamine]",0.045 µM
11,"Nc1ncn(CCc2ccccc2)c2nc(Sc3cc4c(cc3Br)OCO4)nc1-2 [Example 14, 8-(6-bromo-benzo[1,3]dioxol-5-ylsulfanyl)-3-phenethyl-3H-purin-6-ylamine]",5 µM
12,"COc1ccc(Sc2nc3c(N)ncnc3n2CCc2ccccc2)c(OC)c1 [Example 15, 8-(2,4-Dimethoxy-phenylsulfanyl)-9-phenethyl-9H-purin-6-ylamine]",6.5 µM
13,"Nc1ncnc2c1nc(S(=O)(=O)c1ccc(Cl)cc1)n2CCc1ccccc1 [Example 17, 8-(4-Chloro-phenylsulfonyl)-9-phenethyl-9H-purin-6-ylamine]",> 10 µM
14,"N#Cc1ccc(Sc2nc3c(N)ncnc3n2CCc2ccccc2)cc1 [Example 19, 4-(6-Amino-9-phenethyl-9H-purin-8-ylsulfanyl)-benzonitrile]",> 10 µM
15,"N#Cc1ccc(Sc2nc3c(N)ncn(CCc4ccccc4)c-3n2)cc1 [Example 20, 4-(6-amino-3-phenethyl-3H-purin-8-ylsulfanyl)-benzonitrile]",> 10 µM
16,"COc1ccc(OC)c(Sc2nc3c(N)ncnc3n2CCc2ccc(OC)c(OC)c2)c1 [Example 21, 9-[2-(3,4-Dimethoxy-phenyl)-ethyl]-8-(2,5-dimethoxy-phenylsulfanyl)-9H-purin-6-ylamine]",> 10 µM
17,"COc1ccc(OC)c(Sc2nc3c(N)ncn(CCc4ccc(OC)c(OC)c4)c-3n2)c1 [Example 22, 3-[2-(3,4-dimethoxy-phenyl)-ethyl]-8-(2,5-dimethoxy-phenylsulfanyl)-3H-purin-6-ylamine]",> 10 µM

# Other lines, results leading:
row,IC50,SMILES
1,> 3 µM,"CCOC(=O)[C@@H]1C[C@H](CCn2c(Sc3cc4c(cc3Br)OCO4)nc3c(N)ncnc32)CCN1C(=O)OC(C)(C)C (relative stereo) [Example 422, 1-tert-Butyl 2-ethyl cis-4-(2-{6-amino-8-[(6-bromo-1,3-benzodioxol-5-yl)thio]-9H-purin-9-yl}ethyl)piperidine-1,2-dicarboxylate]"
2,> 8 µM,"CC(C)[C@H]1C[C@H](CCn2c(Sc3cc4c(cc3Br)OCO4)nc3c(N)ncnc32)CCN1C(=O)OC(C)(C)C (relative stereo) [Example 428, tert-Butyl trans-4-(2-{6-amino-8-[(6-bromo-1,3-benzodioxol-5-yl)thio]-9H-purin-9-yl}ethyl)-2-isopropylpiperidine-1-carboxylate]"
3,3.8 µM,"CC(C)[C@@H]1C[C@H](CCn2c(Sc3cc4c(cc3Br)OCO4)nc3c(N)ncnc32)CCN1C(=O)OC(C)(C)C (relative stereo) [Example 429, tert-Butyl cis-4-(2-{6-amino-8-[(6-bromo-1,3-benzodioxol-5-yl)thio]-9H-purin-9-yl}ethyl)-2-isopropylpiperidine-1-carboxylate]"
4,0.199 µM,"CC(C)[C@H]1C[C@H](CCn2c(Sc3cc4c(cc3Br)OCO4)nc3c(N)ncnc32)CCN1 (relative stereo) [Example 479, 8-[(6-bromo-1,3-benzodioxol-5-yl)thio]-9-{2-[trans-2-isopropylpiperidin-4-yl]ethyl}-9 H-purin-6-amine]"
5,0.16 µM,"CC(C)[C@@H]1C[C@H](CCn2c(Sc3cc4c(cc3Br)OCO4)nc3c(N)ncnc32)CCN1 (relative stereo) [Example 480, 8-[(6-bromo-1,3-benzodioxol-5-yl)thio]-9-{2-[cis-2-isopropylpiperidin-4-yl]ethyl}-9 H-purin-6-amine]"
6,> 10 µM,"COc1ccc(OC)c(Sc2nc3c(N)ncnc3n2CCc2ccc(C)cc2)c1 [Example 23, 8-(2,5-Dimethoxy-phenylsulfanyl)-9-(2-p-tolyl-ethyl)-9H-purin-6-ylamine]"
7,> 10 µM,"COc1ccc(OC)c(Sc2nc3c(N)ncn(CCc4ccc(C)cc4)c-3n2)c1 [Example 24, 8-(2,5-dimethoxy-phenylsulfanyl)-3-(2-p-tolyl-ethyl)-3H-purin-6-ylamine]"
8,0.041 µM,"COc1ccc(OC)c(Sc2nc3c(N)ncnc3n2CCc2ccccc2Cl)c1 [Example 25, 9-[2-(2-Chloro-phenyl)-ethyl]-8-(2,5-dimethoxy-phenylsulfanyl)-9H-purin-6-ylamine]"
9,> 10 µM,"COc1ccc(OC)c(Sc2nc3c(N)ncn(CCc4ccccc4Cl)c-3n2)c1 [Example 26, 3-[2-(2-chloro-phenyl)-ethyl]-8-(2,5-dimethoxy-phenylsulfanyl)-3H-purin-6-ylamine]"
10,> 10 µM,"COc1ccc(OC)c(Sc2nc3c(N)ncnc3n2CCc2ccc(Cl)cc2Cl)c1 [Example 27, 9-[2-(2,4-Dichloro-phenyl)-ethyl]-8-(2,5-dimethoxy-phenylsulfanyl)-9H-purin-6-ylamine]"
